In paper PMC8322648, “Brevibacillin 2V Exerts Its Bactericidal Activity via Binding to Lipid II and Permeabilizing Cellular Membranes” (Frontiers in Microbiology, 2021):

Experiments:
[1] = tested on: S. aureus ATCC15975 (MRSA) membrane; assay: DiSC3(5) membrane potential assay; format: cell-based, Staphylococcus aureus; details: 2 × MIC; for rank order of membrane disruption capacity: correlates with calculated hydrophobicity
Method: Staphylococcus aureus ATCC15975 (MRSA) was grown to an OD600 of 0.8. The culture was pelleted at 5,000 × g for 5 min and washed three times in 10 mm HEPES with 10 mm glucose (pH 7.2). The cell density was normalized to an OD600 of 0.2, loaded with 2 μm DiSC3(5) dye, and incubated for 20 min in the dark for probe fluorescence to stabilize. After incubation, KCl was added to the cell suspension at a final concentration of 100 mm. Subsequently, the cell suspension was added to a 96-well microplate and incubation for 5 min; after that, antibiotics were added at a final concentration of 2 × MIC. Fluorescence was monitored for 25 min, with the antibiotics added after ~20 s. The excitation and emission wavelengths on the fluorescence spectrometer were adjusted to 622 nm and 670 nm, respectively. Representative examples from three technical replicates are shown.

[2] = Isothermal titration calorimetry; format: binding; details: Figure 5; DOPC LUVs with 2 mol % Lipid II titrated into 50 μM peptide, 10 mM Tris-HCl, 100 mM NaCl, pH 8, 25°C
Method: LUVs containing Lipid II (2%, mol/mol) were prepared by mixing the appropriate volumes of Lipid II and DOPC stock solutions in CHCl3/MeOH (2:1, v/v). The lipid solutions were dried by a nitrogen stream and hydrated with 10 mm Tris-HCl, 100 mm NaCl, and pH 8 buffer to a lipid-phosphate concentration of ~ 20 mm. LUVs were obtained after 10 times freeze-thaw cycles followed by 10 rounds of extrusion through 200 nm membrane filters (Whatman Nuclepore, Track-Etch Membranes). The concentration of lipid-phosphate was determined as described ([Rouser et al., 1970]).
Isothermal titration calorimetry was performed with the Low Volume Nano ITC (Waters LLC, New Castle, DE, United States) to determine the interaction between LUVs and brevibacillins. Brevibacillins were diluted in a buffer (10 mm Tris-HCl, 100 mm NaCl, and pH 8) to a final concentration of 50 μm. Samples were degassed before use. The chamber was filled with 177 μl of the brevibacillins solutions, and the LUVs were titrated into the chamber at a rate of 2 μl/300 s with a stirring rate of 300 rpm. Experiments were performed at 25°C. Control experiments were performed with Lipid II-free LUVs. The Kd values of brevibacillins to Lipid II were calculated using the Nano Analyze Software (Waters LLC).

[3] = Circular dichroism assay, 7-Lipid II; format: binding; details: 10 mM boric acid-NaOH pH 7.5, 0.1% CHAPS, 20°C; for conformational change in presence of DOPC: antibiotic 50 μM, DOPC vesicles 100 μM; for conformational change in presence of 7-Lipid II: antibiotic and 7-Lipid II 50 μM
Method: Lipid II and 7-Lipid II (a heptaprenyl version of Lipid II) were synthesized and purified as described in a previous study ([Breukink et al., 2003]; Figures 2A,B). Purified Lipid II and 7-Lipid II were dissolved in CHCl3/MeOH (2:1) and stored at −20°C until use, and the concentration was determined after destruction to inorganic phosphate according to [Rouser et al. (1970)]. 7-Lipid II was only used in circular dichroism assays, while wild-type Lipid II was used in all of the other assays.
7-Lipid II and 1,2-dioleoyl-sn-glycero-3-phosphocholine (DOPC) were resuspended in 10 mm boric acid-NaOH pH 7.5 containing 0.1% CHAPS. The final concentration of antibiotics and 7-Lipid II was adjusted to 50 μm, while a 100 μm final concentration of DOPC vesicles was used. After added the samples to a quartz cuvette with a path length of 1 mm, the CD spectra were recorded with a Jasco-810 CD spectropolarimeter at 20°C. The ellipticity was recorded between 185 nm and 260 nm at a 0.2-nm step size with 1-s response time. The spectra were averaged over five recordings with a scanning speed of 50 nm/min.

[4] = Carboxyfluorescein leakage assay, LUVs of pure DOPC; details: peptide 100 nM; pure DOPC LUVs 5 μM; 25 mM Tris-HCl, 150 mM NaCl, pH 7.5; ex 492/em 515 nm
Method: LUVs that contain DOPC or DOPC plus 0.1% Lipid II were prepared for a carboxyfluorescein (CF) leakage assay. The lipids were dried by a nitrogen stream and followed under vacuum for 2 h. After that, the lipids were hydrated by adding 25 mm Tris-HCl, 150 mm NaCl, and pH 7.5 containing 50 mm CF. The suspensions were frozen and thawed 10 times, followed by extrusion through 200nm membrane filters (Whatman Nuclepore, Track-Etch Membranes) 10 times. The excess dye was removed by loading vesicles on a spin column (Sephadex G50) for 2 min at 500 × g. Subsequently, the vesicles were diluted to 5 μm, and the brevibacillins-induced release of CF from the vesicles was monitored by measuring the increase in fluorescence intensity. The maximum fluorescence was reached by adding 10 μl of 20% Triton X-100. A Cary Eclipse Fluorescence Spectrophotometer (Agilent, United States) was used to determine the changes of fluorescence signals, and the excitation wavelength and emission wavelength were adjusted to 492 nm and 515 nm, respectively.

human red blood cells = details: 2021, cited from earlier work; for HC50, 50% human blood cell hemolysis concentration: Figure 1, ref Zhao et al.
From the text: (§1) A vast number of bacterial non-ribosomally produced peptides (NRPs) have shown strong antimicrobial activity against pathogenic bacteria ([Cochrane et al., 2014]; [Cociancich et al., 2015]; [Hamamoto et al., 2015]; [Ling et al., 2015]; [Süssmuth and Mainz, 2017]). Lipo-tridecapeptides, a class of NRPs, show strong antimicrobial activity against Gram-positive pathogens, including antibiotic-resistant Staphylococcus aureus and Enterococcus spp. ([Barsby et al., 2001], [2006]; [Yang et al., 2016]; [Wu et al., 2019]; [Zhao et al., 2021]). However, many of these lipo-tridecapeptides have shown high ... || Figure 1 Structures of brevibacillins. The red color indicates the more hydrophobic amino acid residues of brevibacillin V, brevibacillin and brevibacillin I relative to brevibacillin 2V. MIC, the minimum inhibitory concentration against Staphylococcus aureus (MRSA). HC50, the 50% human blood cell hemolysis concentration. CC50, the 50% cell (HepG2) toxicity concentration.

HepG2 = details: Figure 1, ref Zhao et al., 2021; cited from earlier work
From the text: as §1

Row | Substance | speed of membrane permeabilization [1] | rank order of membrane disruption capacity [1] | Kd [2] | conformational change in presence of DOPC [3] | conformational change in presence of 7-Lipid II [3] | membrane disruption (CF leakage), LUVs lacking Lipid II [4] | HC50, 50% human blood cell hemolysis concentration (human red blood cells) | CC50, 50% cell (HepG2) toxicity concentration (HepG2) | hemolytic activity (human red blood cells; 128 mg/L, ref Zhao et al.) | cytotoxicity relative to the other brevibacillins (HepG2)
1 | Brevibacillin | appeared to act faster than brevibacillin 2V and the well-known pore-forming antibiotic nisin | brevibacillin I > brevibacillin > brevibacillin V > brevibacillin 2V | 0.869 µM | no change was apparent | significant conformational change | still caused rapid disruption of membrane | 25.1 ± 0.1 mg/L | 5.21 ± 0.01 µg/mL |  | 
2 | Brevibacillin 2V |  | brevibacillin I > brevibacillin > brevibacillin V > brevibacillin 2V | 7.89 µM | no change was apparent | significant conformational change | still caused rapid disruption of membrane | > 128 mg/L | 45.49 ± 0.24 µg/mL | no hemolytic activity | much lower cytotoxicity than the other brevibacillins
